Experimental data taken from patent publication US6737383B1, “Herbicidal oxadiazolidines” (priority 1999, dated 2004).

Tests used:
blackgrass = assay: Test B pre/postemergence blackgrass; assay type: in vivo, Alopecurus myosuroides
Outline: (§1)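 Test chemicals in a non-phytotoxic solvent mixture with surfactant were sprayed preemergence onto planted seeds and postemergence onto plants 2 to 18 cm tall (1- to 4-leaf stage). After twelve to sixteen days in a greenhouse, injury was visually rated against untreated controls from 0 (no effect) to 10 (complete control).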

velvetleaf = assay: Test B pre/postemergence velvetleaf; assay type: in vivo, Abutilon theophrasti
Outline: as §1

soybean = assay: Test B pre/postemergence soybean; assay type: in vivo, Glycine max
Outline: as §1

bedstraw = assay: Test B pre/postemergence bedstraw; assay type: in vivo, Galium aparine
Outline: as §1

[1] = Postemergence, Rate 62 g/ha, scale 0 to 10, 0 is no effect, 10 is complete control
[2] = Postemergence, Rate 125 g/ha, scale of 0 to 10 where 0 is no effect and 10 is complete control
[3] = Postemergence, Rate 250 g/ha, scale 0 to 10, 0 no effect, 10 complete control
[4] = Preemergence, Rate 62 g/ha, scale 0 to 10 (0 no effect, 10 complete control)
[5] = Preemergence, Rate 125 g/ha, scale 0 to 10 (0 no effect, 10 complete control)
[6] = Preemergence, Rate 250 g/ha, scale of 0 to 10 where 0 is no effect and 10 is complete control
[7] = Preemergence, Rate 500 g/ha, scale 0 (no effect) to 10 (complete control)
[8] = Rate 500 g/ha, Postemergence, scale 0 to 10, 0 no effect, 10 complete control
[9] = Preemergence, Rate 125 g/ha, 0 is no effect, 10 is complete control
[10] = Rate 250 g/ha, Postemergence, scale 0 to 10, 0 is no effect, 10 is complete control
[11] = Postemergence, Rate 125 g/ha, scale 0 to 10, 0 is no effect, 10 is complete control
[12] = Preemergence, Rate 500 g/ha, scale of 0 to 10 where 0 is no effect and 10 is complete control
[13] = Rate 62 g/ha, Postemergence, scale of 0 to 10 where 0 is no effect and 10 is complete control
[14] = Rate 250 g/ha, Postemergence, scale of 0 to 10 where 0 is no effect and 10 is complete control
[15] = Preemergence, Rate 250 g/ha, scale 0 to 10, 0 is no effect, 10 is complete control
[16] = Preemergence, Rate 500 g/ha, scale 0 to 10 (0 no effect, 10 complete control)
[17] = Rate 500 g/ha, Postemergence, scale 0 to 10

SMILES: CC(C)N(C(=O)n1oc(=O)n(-c2cnn(C)c2Cl)c1=O)c1ccc(F)cc1 [Compound 97]
- Blackgrass plant response rating (blackgrass; [1]): 0
- Blackgrass plant response rating (blackgrass; [2]): 0
- Blackgrass plant response rating (blackgrass; [3]): 3
- Blackgrass plant response rating (blackgrass; [4]): 0
- Plant response rating, Blackgrass (blackgrass; [5]): 1
- Plant response rating, Blackgrass (blackgrass; [6]): 1
- Blackgrass plant response rating (blackgrass; [7]): 3
- Blackgrass plant response rating (blackgrass; [8]): 5
- Velvetleaf plant response rating (velvetleaf; [1]): 0
- Velvetleaf plant response rating (velvetleaf; [2]): 0
- Velvetleaf plant response rating (velvetleaf; [4]): 0
- Velvetleaf plant response rating (0 to 10 scale) (velvetleaf; [9]): 0
- Plant response rating, Velvetleaf (velvetleaf; [6]): 0
- Velvetleaf plant response rating (velvetleaf; [7]): 0
- Plant response rating, Velvetleaf (velvetleaf; [10]): 2
- Velvetleaf plant response rating (velvetleaf; [8]): 3
- Soybean plant response rating (soybean; [1]): 0
- Soybean plant response rating (soybean; [2]): 0
- Soybean plant response rating (soybean; [4]): 0
- Plant response rating, Soybean (soybean; [5]): 0
- Plant response rating, Soybean (soybean; [6]): 0
- Soybean plant response rating (soybean; [7]): 2
- Plant response rating, Soybean (soybean; [10]): 1
- Soybean plant response rating (soybean; [8]): 2
- Bedstraw plant response rating (bedstraw; [1]): 0
- Bedstraw plant response rating (bedstraw; [3]): 1
- Plant response rating, Bedstraw (bedstraw; [5]): 0
- Plant response rating, Bedstraw (bedstraw; [6]): 0
- Bedstraw plant response rating (bedstraw; Rate 125 g/ha, Postemergence, scale 0 to 10, 0 no effect, 10 complete control): 0
- Bedstraw plant response rating (bedstraw; [8]): 3

SMILES: CC(C)N(C(=O)n1oc(=O)n(C2CCCCCC2)c1=O)c1ccc(F)cc1F [Compound 342]
- Plant response rating, Blackgrass (blackgrass; [11]): 0
- Plant response rating, Blackgrass (blackgrass; [4]): 0
- Blackgrass plant response rating (0 to 10 scale) (blackgrass; Preemergence, Rate 125 g/ha): 3
- Blackgrass plant response rating (blackgrass; [6]): 3
- Blackgrass plant response rating (blackgrass; [12]): 7
- Blackgrass plant response rating (blackgrass; [13]): 0
- Plant response rating, Blackgrass (blackgrass; [14]): 2
- Plant response rating, Blackgrass (blackgrass; [8]): 4
- Plant response rating, Velvetleaf (velvetleaf; [11]): 0
- Plant response rating, Velvetleaf (velvetleaf; [4]): 0
- Velvetleaf plant response rating (0 to 10 scale) (velvetleaf; Preemergence, Rate 125 g/ha): 0
- Velvetleaf plant response rating (velvetleaf; [6]): 0
- Velvetleaf plant response rating (velvetleaf; [12]): 0
- Velvetleaf plant response rating (velvetleaf; [13]): 0
- Plant response rating, Velvetleaf (velvetleaf; [8]): 0
- Plant response rating, Soybean (soybean; [11]): 5
- Plant response rating, Soybean (soybean; [4]): 0
- Soybean plant response rating (0 to 10 scale) (soybean; Preemergence, Rate 125 g/ha): 0
- Soybean plant response rating (soybean; [6]): 0
- Soybean plant response rating (soybean; [12]): 0
- Soybean plant response rating (soybean; [13]): 3
- Plant response rating, Soybean (soybean; [8]): 7
- Plant response rating, Bedstraw (bedstraw; [11]): 5
- Plant response rating, Bedstraw (bedstraw; [4]): 0
- Bedstraw plant response rating (0 to 10 scale) (bedstraw; Preemergence, Rate 125 g/ha): 0
- Bedstraw plant response rating (bedstraw; [6]): 0
- Bedstraw plant response rating (bedstraw; [13]): 4
- Plant response rating, Bedstraw (bedstraw; [14]): 5
- Plant response rating, Bedstraw (bedstraw; [8]): 5

SMILES: C=CCn1c(=O)on(C(=O)N(c2ccc(F)cc2)C2CC2)c1=O [Compound 154]
- Blackgrass plant response rating (blackgrass; [2]): 0
- Blackgrass plant response rating (blackgrass; [4]): 0
- Blackgrass plant response rating (0 to 10 scale) (blackgrass; [9]): 0
- Blackgrass plant response rating (blackgrass; [15]): 3
- Blackgrass plant response rating (blackgrass; [16]): 5
- Blackgrass plant response rating (blackgrass; [13]): 0
- Plant response rating, Blackgrass (blackgrass; [10]): 0
- Blackgrass plant response rating (blackgrass; [17]): 0
- Velvetleaf plant response rating (velvetleaf; [4]): 0
- Velvetleaf plant response rating (0 to 10 scale) (velvetleaf; [9]): 0
- Velvetleaf plant response rating (velvetleaf; [15]): 0
- Velvetleaf plant response rating (velvetleaf; [16]): 0
- Velvetleaf plant response rating (velvetleaf; [13]): 0
- Plant response rating, Velvetleaf (velvetleaf; [10]): 0
- Velvetleaf plant response rating (velvetleaf; [17]): 0
- Soybean plant response rating (soybean; [2]): 2
- Soybean plant response rating (soybean; [4]): 0
- Soybean plant response rating (0 to 10 scale) (soybean; [9]): 0
- Soybean plant response rating (soybean; [15]): 0
- Soybean plant response rating (soybean; [16]): 0
- Soybean plant response rating (soybean; [13]): 2
- Plant response rating, Soybean (soybean; [10]): 2
- Soybean plant response rating (soybean; [17]): 3
- Bedstraw plant response rating (bedstraw; [2]): 0
- Bedstraw plant response rating (bedstraw; [4]): 0
- Bedstraw plant response rating (0 to 10 scale) (bedstraw; [9]): 0
- Bedstraw plant response rating (bedstraw; [15]): 0
- Bedstraw plant response rating (bedstraw; [16]): 0
- Bedstraw plant response rating (bedstraw; [13]): 0
- Plant response rating, Bedstraw (bedstraw; [10]): 0
